The text below walks through data of patent publication US9512139B2, “Conformationally constrained, fully synthetic macrocyclic compounds” (POLYPHOR AG, priority 2009, dated 2016).

Data set [1] addresses T1, Prostaglandin F (FP) Receptor (Homo sapiens, UniProt P43088).
T1 construct: host or cells: Ca2+ optimized hematopoietic cell lines (rat)
Briefly: Ca2+ assay (FLIPR) for the GPCR prostaglandin F (FP) receptor, agonist and antagonist mode. Type of data set: cell-based. The procedure: Biological and Pharmacological Methods 1. Ca^2+ Assays for the GPCRs Motilin Receptor, Prostaglandin F (FP) Receptor, 5-hydroxytryptamine 2B (5-HT2B) Receptor, and Purinoreceptor P2Y1
Assays were performed using on a FLIPR^TETRA fluorometric imaging plate reader (Molecular Devices) with ScreenWorks Version 2 (Molecular Devices) as device operating and data analysis software.
Dose dependent agonist and antagonist activities were determined. Percentage activation and percentage inhibition values were determined.
Percentage activation was determined upon initial addition of the sample compounds followed by 10 minutes incubation at 25° C. Following compound incubation, reference agonists were added at EC80 to determine percentage inhibition.
Reference agonists were purchased from reputable commercial vendors and prepared according to each ligand's specifications. All handling of ligands were done to ensure proper control throughout the experiments.
Example compounds were weighed on a Microbalance (Mettler MX5) and dissolved in 100% DMSO to a final concentration of 2.5 mM and subsequently diluted into the assay buffer.
The Assay buffer was a supplemented HBSS (Hank's Balanced Salt Solution). HBSS was supplemented with 20 mM HEPES (4-(2-hydroxyethyl)-piperazin-1-ethansulfonic acid) and 2.5 mM Probenecid (Sigma P8761).
GPCR assays were performed using Ca^2+ optimized hematopoietic cell lines (rat) with cultures never exceeding 90% confluency. Cells were harvested and seeded (from cultures at less than 90% confluency) at 50000 cells/well for a 96-well plate (12500 cells/well for 384). After seeding, the assay plates were incubated for forty-five (45) minutes at room temperature. After room temperature incubation, the assay plates were incubated at 37° C. 5% CO2 for 24 hours prior to assaying.
All GPCR assays were performed using Fluo-8 Ca^2+ dye. Ca^2+ dye was prepared at 1× dye concentration in GPCR assay buffer. After 24 hours of incubation, cells were washed with GPCR assay buffer, and then Ca^2+-dye (100 μL/well) was added.
The plates were incubated for 90 minutes at 30° C. 5% CO2 prior to FLIPR assay.
Compound plates were prepared to add 50 μL/well during the agonist assay mode. During the FLIPR assay, 50 μL/well from the compound plate was diluted 3-fold into the existing 100 μL/well from the dye loading step. Therefore all compounds were prepared as 3× the final concentration desired in the assay.
After completion of the first single addition assay run, assay plate was removed from the FLIPR Tetra and placed at 25° C. for seven (7) minutes before antagonist assay.
Using the EC80 values determined during the agonist assay, all pre-incubated sample compound and reference antagonist (if applicable) wells were stimulated at the EC80 of the reference agonist. As reference ligands for the first three assays their obvious natural ligands motilin, prostaglandin F2α, and serotonin (5-HT, 5-Hydroxytryptamine) were used; and for the P2Y1 assay 2MeSATP (2-methyl-thio-adeno-sine 5′-triphosphate, i.e. (2R,3S,4R)-5-(6-amino-2-methylsulfanyl-purin-9-yl)-3,4-dihydroxy-tetrahydrofuran-2-yl]methyl (hydroxy-phosphonooxy-phosphoryl)hydrogen phosphate) was applied.
After the addition of the reference agonist fluorescence was monitored for 180 sec using FLIPR Tetra.
Data Analysis and Results:
From the FLIPR data, with negative control correction enabled, the maximum statistic for each well was exported and percentage activation relative to Emax control was calculated.

A short description of data set [2]: Metabolic stability assay, CD-1 mouse microsomes. The conditions noted are these: CD-1, mouse, microsomes; for half-life at 10 µM: both sexes; for Metabolic Stability 60 min mouse [% remain.]: both, 1 h, 10 µM. Type of data set: in vitro ADME.
A short description of data set [3]: in vitro. Type of data set: in vitro ADME, human. The settings on record: human, plasma; for Plasma Stability T½ [min] hum / Plasma Stability 240 min hum [% remain.]: 10 µM; for Plasma Stability 240 min hum [% remain.]: 4 h.
Method: Example compounds were dissolved in DMSO/H2O 90:10 to a final concentration of 10 mM for plasma stability determination and metabolic stability determination.
Human plasma (3-5 donors, Blutspendedienst SRK, Basel) and CD-1 mouse plasma (mixed gender pool >50 animals, Innovative Research, CA, USA) are both sodium citrate stabilized. The assay is performed in triplicates at 10 μM compound concentration and 37° C. Samples are taken at 0, 15, 60, and 240 minutes and stopped by precipitation with 2 volumes of acetonitrile. The supernatant is collected, evaporated and reconstituted in a 5% acetonitrile solution to be analyzed by HPLC/MS/MS. The resulting peak area counts are expressed in percent of the 0 value and used to determine the endpoint stability in % and the half life in minutes. In order to monitor assay integrity the degradation of propantheline is assayed with every experimental set.
The nature of data set [4]: Metabolic stability assay, human microsomes. The settings on record: human, microsomes; for half-life at 10 µM: both sexes; for Metabolic Stability 60 min hum [% remain.]: both, 1 h, 10 µM. Type of data set: in vitro ADME.

T1 sequence (P43088 whole entry): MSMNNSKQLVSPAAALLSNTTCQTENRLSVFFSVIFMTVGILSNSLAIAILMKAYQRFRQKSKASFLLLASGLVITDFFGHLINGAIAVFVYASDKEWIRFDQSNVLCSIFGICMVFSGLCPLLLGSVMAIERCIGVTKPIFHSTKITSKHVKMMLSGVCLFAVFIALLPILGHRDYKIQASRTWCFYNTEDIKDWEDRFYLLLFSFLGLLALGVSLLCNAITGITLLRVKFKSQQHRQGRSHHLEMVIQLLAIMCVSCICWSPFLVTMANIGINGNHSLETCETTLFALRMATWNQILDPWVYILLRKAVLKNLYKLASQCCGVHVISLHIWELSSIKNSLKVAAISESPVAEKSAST

The term IC50 denotes the concentration that gives 50% inhibition. High values mean lower potency, low ones higher potency. What is called inhibition is how much of the control response was suppressed. Higher therefore signals a strong effect. The half-life is how long it takes for the measured level to halve. Low values mean rapid decline, high ones slow decline. Consider `CN1CCC[C@H](NC(=O)Cc2cccc3ccccc23)C(=O)N2C[C@@H](NC(=O)Nc3cccc(N(C)C)c3)C[C@H]2COc2cccc(c2)C1=O` [Ex. 512, N-[(4S,6S,10S)-6-({[3-(dimethylamino)anilino]carbonyl}amino)-14-methyl-9,15-dioxo-2-oxa-8,14-diazatricyclo[14.3.1.0^4,8]icosa-1(20),16,18-trien-10-yl]-2-(1-naphthyl)acetamide], for which, in data set [1], the IC50 stood at 120 nM and the inhibition at 10 µM was 97%. For the same compound, in data set [2], the half-life at 10 µM turned out to be 12 min and the “Metabolic Stability 60 min mouse [% remain.]” value amounted to 10 % remain. In addition, in data set [3], the Plasma Stability T½ [min] hum is over 240 min and the “Plasma Stability 240 min hum [% remain.]” value is 86 % remain. Further, in data set [4], the half-life at 10 µM was determined as 17 min and the “Metabolic Stability 60 min hum [% remain.]” value is given as 8 % remain.

In data set [1], `CN1CCC[C@H](NS(=O)(=O)c2ccc(-c3ccccc3)cc2)C(=O)N2C[C@@H](NC(=O)Cc3ccc4ccccc4c3)C[C@H]2COc2cccc(c2)C1=O` [Ex. 527, N-[(4S,6S,10S)-10-[([1,1′-biphenyl]-4-ylsulfonyl)amino]-14-methyl-9,15-dioxo-2-oxa-8,14-diazatricyclo[14.3.1.0^4,8]icosa-1(20),16,18-trien-6-yl]-2-(2-naphthyl)acetamide] gave an IC50 of 204 nM and an inhibition at 10 µM of 73%. Also, in data set [2], the half-life at 10 µM came to 20 min and the “Metabolic Stability 60 min mouse [% remain.]” value is 24 % remain. In addition, in data set [3], the half-life at 10 µM stood at 109 min and the “Plasma Stability 240 min hum [% remain.]” value is reported as 26 % remain. Moreover, in data set [4], the half-life at 10 µM worked out at 22 min and the “Metabolic Stability 60 min hum [% remain.]” value is 23 % remain.

In data set [1], `CCCCCCCCCC(=O)N[C@H]1CN(C)C(=O)c2cccc(c2)OC[C@@H]2C[C@H](NC(=O)Cc3c[nH]c4ccccc34)CN2C(=O)CN(C)C1=O` [Ex. 213, N-[(4S,6S,13S)-6-{[2-(1H-indol-3-yl)acetyl]amino}-11,15-dimethyl-9,12,16-trioxo-2-oxa-8,11,15-triazatricyclo[15.3.1.0^4,8]henicosa-1(21),17,19-trien-13-yl]decanamide] gave an IC50 of 1700 nM and an inhibition at 10 µM of 78%. Besides, in data set [2], the half-life at 10 µM came to 17 min and the “Metabolic Stability 60 min mouse [% remain.]” value is listed as 4 % remain. In data set [4], the half-life at 10 µM stood at 16 min and the “Metabolic Stability 60 min hum [% remain.]” value was 0 % remain.

In data set [1], `CN1CCC[C@H](NC(=O)Cc2cccc(-c3ccccc3)c2)C(=O)N2C[C@@H](NC(=O)Nc3cccc(N(C)C)c3)C[C@H]2COc2cccc(c2)C1=O` [Ex. 525, 2-[1,1′-biphenyl]-3-yl-N-[(4S,6S,10S)-6-({[3-(dimethylamino)anilino]carbonyl}amino)-14-methyl-9,15-dioxo-2-oxa-8,14-diazatricyclo[14.3.1.0^4,8]icosa-1(20),16,18-trien-10-yl]acetamide] returned an IC50 of 94 nM and an inhibition at 10 µM of 99%. Further, in data set [2], the half-life at 10 µM was 25 min and the “Metabolic Stability 60 min mouse [% remain.]” value was determined as 29 % remain. Also, in data set [3], the Plasma Stability T½ [min] hum was over 240 min and the “Plasma Stability 240 min hum [% remain.]” value turned out to be 100 % remain. Moreover, in data set [4], the half-life at 10 µM amounted to 16 min and the “Metabolic Stability 60 min hum [% remain.]” value came to 13 % remain.

In data set [1], `CCCCCCCCCC(=O)N[C@H]1CCCNC(=O)c2cccc(c2)OC[C@@H]2C[C@H](NC(=O)Cc3ccc4ccccc4c3)CN2C1=O` [Ex. 391, N-[(4S,6S,10S)-6-{[2-(2-naphthyl)acetyl]amino}-9,15-dioxo-2-oxa-8,14-diazatricyclo[14.3.1.0^4,8]icosa-1(20),16,18-trien-10-yl]decanamide] gave an IC50 of 250 nM and an inhibition at 10 µM of 93%.

Take `CN1CCC[C@H](NC(=O)Cc2ccc(-c3ccccc3)cc2)C(=O)N2C[C@@H](NC(=O)Nc3cccc(N(C)C)c3)C[C@H]2COc2cccc(c2)C1=O` [Ex. 526, 2-[1,1′-biphenyl]-4-yl-N-[(4S,6S,10S)-6-({[3-(dimethylamino)anilino]carbonyl}amino)-14-methyl-9,15-dioxo-2-oxa-8,14-diazatricyclo[14.3.1.0^4,8]icosa-1(20),16,18-trien-10-yl]acetamide]: in data set [1], the IC50 stood at 180 nM and the inhibition at 10 µM is 99%.

In data set [1], `CN1CCC[C@H](NC(=O)Cc2ccc3ccccc3c2)C(=O)N2C[C@@H](NC(=O)Nc3cccc(N(C)C)c3)C[C@H]2COc2cccc(c2)C1=O` [Ex. 508, N-[(4S,6S,10S)-6-({[3-(dimethylamino)anilino]carbonyl}amino)-14-methyl-9,15-dioxo-2-oxa-8,14-diazatricyclo[14.3.1.0^4,8]icosa-1(20),16,18-trien-10-yl]-2-(2-naphthyl)acetamide] gave an IC50 of 430 nM and an inhibition at 10 µM of 93%.

On to `CCCCCCCCCC(=O)N[C@H]1CCCN(C)C(=O)c2cccc(c2)OC[C@@H]2C[C@H](NC(=O)Nc3cccc(N(C)C)c3)CN2C1=O` [Ex. 511, N-[(4S,6S,10S)-6-({[3-(dimethylamino)anilino]carbonyl}amino)-14-methyl-9,15-dioxo-2-oxa-8,14-diazatricyclo[14.3.1.0^4,8]icosa-1(20),16,18-trien-10-yl]decanamide], for which, in data set [1], the IC50 is 59 nM and the inhibition at 10 µM came out at 99%. In addition, in data set [2], the half-life at 10 µM turned out to be 14 min and the “Metabolic Stability 60 min mouse [% remain.]” value is 14 % remain. In data set [3], the Plasma Stability T½ [min] hum is over 240 min and the “Plasma Stability 240 min hum [% remain.]” value is listed as 100 % remain. Besides, in data set [4], the half-life at 10 µM amounted to 2 min and the “Metabolic Stability 60 min hum [% remain.]” value is on record as 1 % remain.

In data set [1], `CN1CCC[C@H](NC(=O)Cc2ccc(-c3ccccc3)cc2)C(=O)N2C[C@@H](NC(=O)Cc3ccc4ccccc4c3)C[C@H]2COc2cccc(c2)C1=O` [Ex. 522, 2-[1,1′-biphenyl]-4-yl-N-[(4S,6S,10S)-14-methyl-6-{[2-(2-naphthyl)acetyl]amino}-9,15-dioxo-2-oxa-8,14-diazatricyclo[14.3.1.0^4,8]icosa-1(20),16,18-trien-10-yl]acetamide] came in with an IC50 of 350 nM and an inhibition at 10 µM of 95%.

In data set [1], `CCCCCC/C=C/CC(=O)N[C@H]1CCCN(C)C(=O)c2cccc(c2)OC[C@@H]2C[C@H](NC(=O)Cc3ccc4ccccc4c3)CN2C1=O` [Ex. 518, (E)-N-[(4S,6S,10S)-14-methyl-6-{[2-(2-naphthyl)acetyl]amino}-9,15-dioxo-2-oxa-8,14-diazatricyclo[14.3.1.0^4,8]icosa-1(20),16,18-trien-10-yl]-3-decenamide] registered an IC50 of 490 nM and an inhibition at 10 µM of 80%.

In turn, `CN1CCC[C@H](NC(=O)Cc2ccc3ccccc3c2)C(=O)N2C[C@@H](NC(=O)Cc3ccc4cccnc4c3)C[C@H]2COc2cccc(c2)C1=O` [Ex. 540, N-[(4S,6S,10S)-14-methyl-9,15-dioxo-6-{[2-(7-quinolinyl)acetyl]amino}-2-oxa-8,14-diazatricyclo[14.3.1.0^4,8]icosa-1(20),16,18-trien-10-yl]-2-(2-naphthyl)acetamide] gave an inhibition at 10 µM in data set [1] of 43%.

Turning to `CN1CCC[C@H](NC(=O)C(c2ccccc2)c2ccccc2)C(=O)N2C[C@@H](NC(=O)Cc3ccc(-c4ccccc4)cc3)C[C@H]2COc2cccc(c2)C1=O` [Ex. 547, N-[(4S,6S,10S)-6-[(2-[1,1′-biphenyl]-4-ylacetyl)amino]-14-methyl-9,15-dioxo-2-oxa-8,14-diazatricyclo[14.3.1.0^4,8]icosa-1(20),16,18-trien-10-yl]-2,2-diphenylacetamide], in data set [1], the inhibition at 10 µM was found to be 47%.
